Results from patent US11866460B2 (priority 2015, dated 2024).
Values after ≈ are worked out from the molar mass of the structure shown. Values joined by “and” are separate entries in the source; they are usually repeats but may differ in a detail not shown here. Identical values can stand only once. Like-named read-outs stand apart in the source and are kept apart here. Where a SMILES comes first, the peptide text is derived from it. Where no end group is shown, it is not given here.

Assays:
[1] = system: HIV-1US/92/727; details: human PBMCs
[2] = system: human PBMCs
[3] = system: HSV-1; test: microbe, parasite or virus in culture; details: Human alphaherpesvirus 1, Vero
[4] = system: Propionibacterium acnes; test: microbe, parasite or virus in culture; type: cell-based; details: Cutibacterium acnes, 48 h
[5] = system: Haemophilus influenzae; test: microbe, parasite or virus in culture; type: cell-based
[6] = system: Clostridium difficile; test: microbe, parasite or virus in culture; type: cell-based; details: Clostridioides difficile, 48 h
[7] = system: ZIKV FSS 13025; details: read-out: IC50 (PRNT50), plaque reduction; Vero cells, day 4
[8] = system: ZIKV FSS 13025; details: read-out: IC50, yield reduction; Vero cells, day 3
[9] = in vitro; details: African green monkey, CC50
[10] = system: HIV-1RF; type: cell-based
[11] = system: Ca Ski cells
[12] = system: HEC1A cells
[13] = system: ME180 cells
[14] = system: Caco-2 cells
[15] = system: Staphylococcus aureus (MSSA)
[16] = system: Ebola virus (EBOV)
[17] = system: CHIKV 181/25; details: 0 h
[18] = system: Lactobacillus crispatus
[19] = system: Enterococcus faecium (VRE)
[20] = system: aerobic Gram-positive bacterial isolates (S. aureus, enterococci, streptococci, and B. anthracis)
[21] = system: Vero cells, erythrocyte, epithelial and endometrial cell lines
[22] = system: Enterococcus faecalis (VRE)
[23] = system: Streptococcus pyogenes
[24] = system: Enterococcus faecalis (VSE)
[25] = system: JUNV Candid #1; details: 0 h
[26] = system: Lactobacillus jensenii
[27] = in vitro; details: Lactobacillus acidophilus
[28] = system: Bacillus anthracis Sterne
[29] = system: Streptococcus pneumoniae (PRSP)
[30] = system: Lactobacillus acidophilus
[31] = in vitro; details: human, TC50
[32] = system: human erythrocyte cells
[33] = system: DENV-1 PRS41393; details: -1 PRS41393, 0 h
[34] = in vitro; details: dog
[35] = system: Vero cells; details: African green monkey
[36] = system: VACV NYCBH; details: 0 h
[37] = system: Streptococcus agalactiae
[38] = system: Streptococcus pneumoniae (PSSP)
[39] = in vitro; details: Lactobacillus jensenii
[40] = system: Marburg virus (MARV)
[41] = in vitro; details: Lactobacillus crispatus
[42] = system: VEEV TC-83; details: 0 h
[43] = system: panel of enveloped viruses (DENV, JEV, YFV, CHIKV and others); details: panel of enveloped viruses (, JEV, YFV, CHIKV and others)
[44] = system: Streptococcus salivarius
[45] = 0.01 μg/mL during exposure, Day 3
[46] = 0.01 μg/mL during exposure, Day 6
[47] = 0.1 μg/mL during exposure, Day 3
[48] = 0.1 μg/mL during exposure, Day 6
[49] = 10 μg/mL during exposure, Day 3
[50] = 10 μg/mL during exposure, Day 6
[51] = 100 μg/mL during exposure, Day 3
[52] = 100 μg/mL during exposure, Day 6
[53] = 1000 μg/mL during exposure, Day 3
[54] = 1000 μg/mL during exposure, Day 6

Cc1cn([C@H]2C[C@H](N=[N+]=[N-])[C@@H](CO)O2)c(=O)[nH]c1=O [AZT]
TI (TC50/EC50) [1]: >342.5 | EC50 ([1]; 7 days): 2.9 nM and 2.92 nM | CC50 [2]: > 1000 nM

Nc1nc2c(ncn2COCCO)c(=O)[nH]1 [Acyclovir]
EC50 [3]: 2820 nM

CCC[C@@H]1C[C@@H](C(=O)N[C@@H]([C@H]2O[C@H](SC)[C@H](O)[C@@H](O)[C@H]2O)[C@H](C)Cl)N(C)C1 [Clindamycin]
MIC [4]: ≤ 0.06 µg/mL | MIC [5]: 4 µg/mL (≈ 9.41 µM) | MIC [6]: 1 µg/mL (≈ 2.35 µM)

CC(C)C[C@@H](NC(=O)[C@@H](CCCCN)NC(=O)[C@@H](CO)NC(=O)[C@@H](CCC(N)=O)NC(=O)[C@@H](CC(C)C)NC(=O)[C@@H](Cc1c[nH]c2ccccc12)NC(=O)[C@H](NC(=O)[C@@H](Cc1c[nH]c2ccccc12)NC(=O)[C@H](NC(=O)[C@@H](CC(=O)O)NC(=O)[C@@H](CCCNC(=N)N)NC(=O)[C@@H](CC(C)C)NC(=O)[C@@H](Cc1c[nH]c2ccccc12)NC(=O)[C@@H](CO)NC(=O)CNC(=O)[C@H](N)CO)C(C)C)[C@H](C)O)C(=O)O [TSG001 D-isomer] (HELM PEPTIDE1{[dS].G.[dS].[dW].[dL].[dR].[dD].[dV].[dW].[dT].[dW].[dL].[dQ].[dS].[dK].[dL]}$$$$V2.0; N-terminus and C-terminus assumed)
IC50 [7]: 490 nM | IC50 [8]: 646 nM | CC50 [9]: 11600 nM

Nonoxynol-9 [Nonoxynol 9]
Log Reduction in Virus Titer [10, 45]: 0.3 log | TCID50 Sample - Virus [10, 45]: 5 | Log Reduction in Virus Titer [10, 46]: 0.5 log | TCID50 Sample - Virus [10, 46]: 6 | Log Reduction in Virus Titer [10, 47]: 0.3 log | TCID50 Sample - Virus [10, 47]: 5 | Log Reduction in Virus Titer [10, 48]: 0.7 log | TCID50 Sample - Virus [10, 48]: 5.8 | Log Reduction in Virus Titer ([10]; 1 μg/mL during exposure, Day 3): 0.3 log | TCID50 Sample - Virus ([10]; 1 μg/mL during exposure, Day 3): 5 | Log Reduction in Virus Titer ([10]; 1 μg/mL during exposure, Day 6): 0 log | TCID50 Sample - Virus ([10]; 1 μg/mL during exposure, Day 6): ≥6.6 | Log Reduction in Virus Titer [10, 49]: 0 log | TCID50 Sample - Virus [10, 49]: 5.3 | Log Reduction in Virus Titer [10, 50]: 0 log | TCID50 Sample - Virus [10, 50]: ≥6.6 | Log Reduction in Virus Titer [10, 51]: ≥3.3 log | TCID50 Sample - Virus [10, 51]: ≤2.0 | Log Reduction in Virus Titer [10, 52]: 2.9 log | TCID50 Sample - Virus [10, 52]: 3.6 | Log Reduction in Virus Titer [10, 53]: ≥2.8 log | TCID50 Sample - Virus [10, 53]: ≤2.5 | Log Reduction in Virus Titer [10, 54]: ≥2.7 log | TCID50 Sample - Virus [10, 54]: ≤3.8 | TC50 [11]: 61.3 µg/mL | TC50 [12]: 62.9 µg/mL | TC50 [13]: 74.0 µg/mL | TC50 [14]: 55.1 µg/mL

SGSWLRDVWTWLQSKL [TSG001]
MIC [15]: 2 µM | EC50 [16]: 934 nM | TI (TC50/EC50) [1]: 8.93 | EC50 [17]: 2240 nM | TC50 [18]: non-toxic | MIC [19]: 2 µM | MICs, range over isolates [20]: 2 to 16 µg/mL | cytotoxicity [21]: minimal cytotoxicity | MIC [22]: 4 µM | MIC [23]: 4 µM | MIC [24]: 2 µM | EC50 [25]: > 75000 nM | TC50 [26]: non-toxic | CC50 [27]: > 50000 nM | CC50 ([13]; human): 37000 nM | MIC [28]: 1 µM | MIC [29]: 8 µM | TC50 [30]: non-toxic | CC50 [31]: 37000 nM | MHC [32]: 50 µM | EC50 [33]: 3420 nM | CC50 [34]: > 200000 nM | CC50 [35]: 153000 nM | EC50 [36]: > 12500 nM | MIC [37]: 8 µM | MIC [38]: 8 µM | CC50 [39]: > 50000 nM | EC50 [40]: 637 nM | CC50 [41]: > 50000 nM | EC50 [42]: > 12500 nM | EC50 [43]: < 3000 nM | MIC [44]: 4 µM
